In US6284914A, “Highly water-soluble metalloproteinase inhibitors” (Fuji Yakuhin Kogyo Kabushiki Kaisha, priority 1995, dated 2001) one finds solubility and IC50 data, which are given here for nine compounds.

Series [1] can be described thus: Measurement of Solubility in Water. The class given is physicochemical. To be noted: water, distilled water, 20±5° C., 30 min., checked by eye. Here is the method: A compound of Examples or a comparative compound was added to distilled water and shaken vigorously at 20±5° C. for 30 seconds at 5 min. interval. After 30 min., it was checked by watching with eye whether the compound was dissolved or not.

Series [2] concerns the target T1, collagenase (MMP-1) (Homo sapiens, UniProt P03956).
T1 construct: endogenous in cells; host or cells: human fibroblast
T1 sequence (P03956 100-469): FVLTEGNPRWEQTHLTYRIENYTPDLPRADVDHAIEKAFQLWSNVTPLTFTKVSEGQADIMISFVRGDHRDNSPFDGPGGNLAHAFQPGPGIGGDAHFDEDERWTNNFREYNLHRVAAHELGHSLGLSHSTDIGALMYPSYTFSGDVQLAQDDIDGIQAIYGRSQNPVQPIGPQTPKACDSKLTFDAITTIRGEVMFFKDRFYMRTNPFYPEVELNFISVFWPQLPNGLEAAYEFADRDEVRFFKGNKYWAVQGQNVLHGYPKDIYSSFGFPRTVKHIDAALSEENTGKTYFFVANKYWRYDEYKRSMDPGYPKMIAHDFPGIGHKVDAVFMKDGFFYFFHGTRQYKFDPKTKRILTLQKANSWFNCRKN
The series is described as follows: Assay for Collagenase Inhibitory Activity (MMP-1). Format: biochemical. To be noted: fluorescein-labeled bovine type I collagen substrate, 35° C., 2 hours, pH 7.5; read-out: Inhibitory activities for matrix metalloproeinases (MMPs), MMP-1, IC50 value. The protocol:
(§1) Inhibitory activities of the compounds represented by the general formula (I) according to the invention for collagenase (metalloproteinase concerned with a tissue destruction) derived from human fibroblast were tested by the method of Y. Murawaki et al., [Journal of Hepatology, 18, p. 328-334 (1993)], and their inhibitory activities for stromelysin derived from human fibroblast were measured by the method of S. S. Twining et al., [Anal. Biochem., 143, p. 30 (1984)].
Inhibitory activities for collagenase (MMP-1) of the compounds of Examples and comparative compounds were measured by the method of Y. Murawaki et al., [Journal of Hepatology, 18, p. 328-334 (1993)]. The latent procollagenase was activated by incubating with mercury aminophenylacetate (2 mM) at 35° C. for 2 hours. The assay was done by using bovine type I collagen labeled with fluorescein as a substrate. The activated collagenase was added to the substrate solution (0.5 mg/ml) in Tris HCl buffer (50 mM, pH 7.5) containing sodium chloride (0.4 M) and calcium chloride (10 mM). The obtained solution was incubated at 35° C. for 2 hours. The enzyme digestion was stopped by the addition of o-phenanthroline (80 mM). The mixture was added with pig spleen elastase solution (25 μg/ml) in the above Tris HCl buffer, and incubated 37° C. for 10 min. The obtained solution was added with 70% ethanol and Tris HCl buffer (170 mM, pH 9.5) containing sodium chloride (0.61 M), whereby the indigested substrate was sedimented by centrifuging at 3000 g for 20 min. The supernatant was taken, and its intensity of fluorescence was determined by the excitation wavelength (495 nm) and the measured wavelength (520 nm), and the inhibitory activity was obtained. IC50 is a concentration of a compound assayed in the digesting enzyme, whereby the splitting of the substrate was decreased to 50% compared with that attained by the enzyme alone.

Series [3] concerns the target T2, stromelysin (MMP-3) (Homo sapiens, UniProt P08254).
T2 construct: endogenous in cells; host or cells: human fibroblast
The series is described as follows: Assay for Stromelysin Inhibitory Activity (MMP-3). The conditions noted are these: fluorescein-labeled casein substrate, 37° C., 2 hours, pH 7.8; read-out: Inhibitory activities for matrix metalloproeinases (MMPs), MMP-3, IC50 value. Format: biochemical. Here is the method: as §1
Inhibitory activities for stromelysin (MMP-3) of the compounds of Examples and comparative compounds were measured by the method of S. S. Twining et al., [Anal. Biochem., 143, p. 30 (1984)]. The latent prostromelysin was incubated with human plasmin (20 μg/ml) for the activation at 37° C. for 2 hours, and then the incubate was added with diisopropyl fluorophosphate solution (2.8 mg/ml) to stop the reaction. The assay was done by using casein labeled with fluorescein as the substrate. The activated stromelysin was added to a substrate solution (1 mg/ml) in Tris HCl buffer (50 mM, pH 7.8) containing calcium chloride (10 mM). The obtained solution was incubated at37° C. for 2 hours. The enzyme digestion forthesubstrate was stopped by adding 5% trichloroacetic acid. The indigested substrate was sedimented by centrifuging at 3000 g for 20 min. The supernatant was taken and added with Tris HCl buffer (0.5 M, pH 8.5), whereby its intensity of fluorescence was determined by the excitation wavelength (495 nm) and the measured wavelength (520 nm), and the inhibitory activity was obtained. IC50 is a concentration of a compound assayed in the digesting enzyme, whereby the splitting of the substrate was decreased to 50% compared with that attained by the enzyme alone.

Where a name gives a salt, the structure may show the parent alone. Bounds are passed on as bounds.

T2 sequence (P08254 100-477): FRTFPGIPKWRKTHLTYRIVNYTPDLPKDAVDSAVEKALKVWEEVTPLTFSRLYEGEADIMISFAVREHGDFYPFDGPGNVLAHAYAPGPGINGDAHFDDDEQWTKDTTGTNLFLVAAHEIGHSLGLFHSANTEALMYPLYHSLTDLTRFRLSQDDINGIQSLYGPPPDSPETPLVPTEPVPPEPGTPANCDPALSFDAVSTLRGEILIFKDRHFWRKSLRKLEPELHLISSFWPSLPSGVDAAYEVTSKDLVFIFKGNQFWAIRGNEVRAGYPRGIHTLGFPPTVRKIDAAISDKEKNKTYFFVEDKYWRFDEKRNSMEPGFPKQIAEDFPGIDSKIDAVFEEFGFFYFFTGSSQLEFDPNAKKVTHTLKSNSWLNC

A word on the solubility: it is the concentration that dissolves in the medium under given conditions. Read a low solubility as little dissolved substance. In series [1], `CNC(=O)[C@H](Cc1ccc(OS(=O)(=O)O)cc1)NC(=O)C(CC(=O)NO)CC(C)C` (single isomer, unassigned) [Example 1 (Isomer A), N-[4-(N-Hydroxyamino)-2(R or S)-isobutylsuccinyl]-O-sulfo-L-tyrosine-N-methylamide, Monosodium Salt] displayed a solubility at 0.5 h above 240 mg/mL. The IC50 is the concentration at which inhibition is half-maximal. Regarding `CNC(=O)[C@H](Cc1ccc(OS(=O)(=O)O)cc1)NC(=O)C(CC(=O)NO)CC(C)C` (single isomer, unassigned) [Example 1 (Isomer B), N-[4-(N-Hydroxyamino)-2(R or S)-isobutylsuccinyl]-O-sulfo-L-tyrosine-N-methylamide, Monosodium Salt], the IC50 in series [2] was determined as 5.1 nM; in series [3], 500 nM. Turning to `CNC(=O)[C@H](Cc1ccc(CNC(C)=N)cc1)NC(=O)[C@H](CC(C)C)C(CCCc1ccccc1)C(=O)NO` (single isomer, unassigned) [Example 10, N-[4-(N-Hydroxyamino)-2(R)-isobutyl-3(R or S)-(3-phenyltrimethylene)succinyl]-L-4'-acetimidoyliminomethylenephenylalanine-N-methylamide Monoacetate], the IC50 in series [2] was 7 nM; in series [3], 15 nM. The like results for `CNC(=O)[C@H](Cc1ccc(C(=N)N)cc1)NC(=O)[C@H](CC(C)C)C(CCCc1ccccc1)C(=O)NO` (single isomer, unassigned) [Example 17, N-[4-(N-Hydroxyamino)-2(R)-isobutyl-3(R or S)-(3-phenyltrimethylene)succinyl]-L-4'-amidinophenylalanine-N-methylamideMonoacetate] were, in that order, 5 nM and 5 nM. The like results for `CNC(=O)[C@H](Cc1ccc(CNC(=N)c2ccccc2)cc1)NC(=O)[C@H](CC(C)C)C(CCCc1ccccc1)C(=O)NO` (stereo partly drawn) [Example 12, N-[4-(N-Hydroxyamino)-2(R)-isobutyl-3(RS)-(3-phenyltrimethylene)succinyl]-L-4'-benzimidoyliminomethylenephenylalanine-N-methylamide Monoacetate] were, in that order, 10 nM and 10 nM. The like results for `CNC(=O)[C@H](Cc1ccc(CNC(C)=O)cc1)NC(=O)[C@H](CC(C)C)C(CCCc1ccccc1)C(=O)NO` (stereo partly drawn) [Example 13, N-[4-(N-Hydroxyamino)-2(R)-isobutyl-3(RS)-(3-phenyltrimethylene)succinyl]-L-4'-acetamidomethylenephenylalanine-N-methylamide] were, in that order, 4 nM and 10 nM.

Turning to `CNC(=O)[C@H](Cc1ccc(CNC(=N)N)cc1)NC(=O)[C@H](CC(C)C)C(CCCc1ccccc1)C(=O)NO` (stereo partly drawn) [Example 14, N-[4-(N-Hydroxyamino)-2(R)-isobutyl-3(RS)-(3-phenyltrimethylene)succinyl]-L-4'-guanidomethylenephenylalanine-N-methylamide Monoacetate], the half-maximal inhibitory concentration (IC50) in series [2] is 4 nM; in series [3], 10 nM. On to `CC(C)C[C@@H](C(=O)N[C@@H](Cc1ccc(OS(=O)(=O)O)cc1)C(=O)Nc1cccc2ccccc12)C(CCCc1ccccc1)C(=O)NO` (stereo partly drawn) [Example 18, N-[4-(N-Hydroxyamino)-2(R)-isobutyl-3(RS)-(3-phenyltrimethylene)succinyl]-O-sulfo-L-tyrosine-N-1-naphthylamide, Monosodium Salt], for which the IC50 was found to be 500 nM in series [2] and 6 nM in series [3]. The like results for `CC(C)C[C@@H](C(=O)N[C@@H](Cc1ccc(NC(=N)N)cc1)C(=O)Nc1ccccc1)C(CCCc1ccccc1)C(=O)NO` (stereo partly drawn) [Example 19, N-[4-(N-Hydroxyamino)-2(R)-isobutyl-3(RS)-(3-phenyltrimethylene)succinyl]-L-4'-guanidophenylalanine-N-phenylamide Monoacetate] were, in that order, 8 nM and 10 nM.
